# Measurements from ChEMBL document CHEMBL3217615, “Novel 3,5-bis(arylidiene)-4-piperidone based monocarbonyl analogs of curcumin: anticancer activity evaluation and mode of action study” (2014).
# Tests used:
# Assay type in all cases: functional
# [1] = Growth inhibition of human BT549 cells assessed as cell growth at 10^-7 M after 48 hrs by sulforhodamine B assay; details: BT-549, 48 h, read-out: Activity
# 786-0 [2] = assay: Growth inhibition of human 786-0 cells assessed as cell growth at 10^-7 M after 48 hrs by sulforhodamine B assay; details: 786-0, 48 h, read-out: Activity
# [3] = Growth inhibition of human OVCAR8 cells assessed as cell growth at 10^-5 M after 48 hrs by sulforhodamine B assay; details: OVCAR-8, 48 h, read-out: Activity
# [4] = Growth inhibition of human OVCAR5 cells assessed as cell growth at 10^-5 M after 48 hrs by sulforhodamine B assay; details: OVCAR-5, 48 h, read-out: Activity
# SK-MEL-5 [5] = assay: Growth inhibition of human SK-MEL-5 cells assessed as cell growth at 10^-5 M after 48 hrs by sulforhodamine B assay; details: SK-MEL-5, 48 h, read-out: Activity
# MDA-MB-435 [6] = assay: Growth inhibition of human MDA-MB-435 cells assessed as cell growth at 10^-5 M after 48 hrs by sulforhodamine B assay; details: MDA-MB-435, 48 h, read-out: Activity
# SNB-75 = assay: Growth inhibition of human SNB75 cells assessed as cell growth at 10^-5 M after 48 hrs by sulforhodamine B assay; details: SNB-75, 48 h, read-out: Activity
# [7] = Growth inhibition of human SF295 cells assessed as cell growth at 10^-5 M after 48 hrs by sulforhodamine B assay; details: SF-295, 48 h, read-out: Activity
# SW-620 [8] = assay: Growth inhibition of human SW620 cells assessed as cell growth at 10^-5 M after 48 hrs by sulforhodamine B assay; details: SW-620, 48 h, read-out: Activity
# HT-29 [9] = assay: Growth inhibition of human HT-29 cells assessed as cell growth at 10^-5 M after 48 hrs by sulforhodamine B assay; details: HT-29, 48 h, read-out: Activity
# HL-60(TB) = assay: Growth inhibition of human HL-60(TB) cells assessed as cell growth at 10^-5 M after 48 hrs by sulforhodamine B assay; details: HL-60, 48 h, read-out: Activity
# K562 = assay: Growth inhibition of human K562 cells assessed as cell growth at 10^-5 M after 48 hrs by sulforhodamine B assay; details: K562, 48 h, read-out: Activity
# DU-145 [10] = assay: Growth inhibition of human DU145 cells assessed as cell growth at 10^-6 M after 48 hrs by sulforhodamine B assay; details: DU-145, 48 h, read-out: Activity
# A549 = assay: Growth inhibition of human A549/ATCC cells assessed as cell growth at 10^-4 M after 48 hrs by sulforhodamine B assay; details: A549, 48 h, read-out: Activity
# [11] = Growth inhibition of human BT549 cells assessed as cell growth at 10^-5 M after 48 hrs by sulforhodamine B assay; details: BT-549, 48 h, read-out: Activity
# MCF7 = assay: Growth inhibition of human MCF7 cells assessed as cell growth at 10^-5 M after 48 hrs by sulforhodamine B assay; details: MCF7, 48 h, read-out: Activity
# DU-145 [12] = assay: Growth inhibition of human DU145 cells assessed as cell growth at 10^-5 M after 48 hrs by sulforhodamine B assay; details: DU-145, 48 h, read-out: Activity
# PC-3 = assay: Growth inhibition of human PC3 cells assessed as cell growth at 10^-5 M after 48 hrs by sulforhodamine B assay; details: PC-3, 48 h, read-out: Activity
# [13] = Growth inhibition of human UO31 cells assessed as cell growth at 10^-5 M after 48 hrs by sulforhodamine B assay; details: UO-31, 48 h, read-out: Activity
# SN12C = assay: Growth inhibition of human SN12C cells assessed as cell growth at 10^-5 M after 48 hrs by sulforhodamine B assay; details: read-out: Activity
# CAKI-1 = assay: Growth inhibition of human CAKI-1 cells assessed as cell growth at 10^-5 M after 48 hrs by sulforhodamine B assay; details: CAKI-1, 48 h, read-out: Activity
# A498 = assay: Growth inhibition of human A498 cells assessed as cell growth at 10^-5 M after 48 hrs by sulforhodamine B assay; details: A498, 48 h, read-out: Activity
# 786-0 [14] = assay: Growth inhibition of human 786-0 cells assessed as cell growth at 10^-5 M after 48 hrs by sulforhodamine B assay; details: 786-0, 48 h, read-out: Activity
# HT-29 [15] = assay: Growth inhibition of human HT-29 cells assessed as cell growth at 10^-8 M after 48 hrs by sulforhodamine B assay; details: HT-29, 48 h; for growth at 0.01 µM: read-out: Activity; for TGI: read-out: pTGI (converted)
# NCI-H226 = assay: Growth inhibition of human NCI-H226 cells assessed as cell growth at 10^-8 M after 48 hrs by sulforhodamine B assay; details: NCI-H226, 48 h; for growth at 0.01 µM: read-out: Activity; for TGI: read-out: pTGI (converted)
# [16] = Growth inhibition of human NCI-ADR-RES cells after 48 hrs by sulforhodamine B assay; details: for CC50: read-out: LC50 (the source's name)
# MDA-MB-435 [17] = assay: Growth inhibition of human MDA-MB-435 cells after 48 hrs by sulforhodamine B assay; details: MDA-MB-435, 48 h; for CC50: read-out: LC50 (the source's name)
# [18] = Growth inhibition of human SF295 cells after 48 hrs by sulforhodamine B assay; details: SF-295, 48 h; for CC50: read-out: LC50 (the source's name)
# SW-620 [19] = assay: Growth inhibition of human SW620 cells after 48 hrs by sulforhodamine B assay; details: SW-620, 48 h; for CC50: read-out: LC50 (the source's name)
# COLO 205 = assay: Growth inhibition of human COLO205 cells after 48 hrs by sulforhodamine B assay; details: COLO 205, 48 h; for CC50: read-out: LC50 (the source's name)
# [20] = Growth inhibition of human UO31 cells assessed as cell growth at 10^-4 M after 48 hrs by sulforhodamine B assay; details: UO-31, 48 h, read-out: Activity
# SK-MEL-5 [21] = assay: Growth inhibition of human SK-MEL-5 cells assessed as cell growth at 10^-7 M after 48 hrs by sulforhodamine B assay; details: SK-MEL-5, 48 h, read-out: Activity
# Malme-3M = assay: Growth inhibition of human MALME-3M cells assessed as cell growth at 10^-7 M after 48 hrs by sulforhodamine B assay; details: read-out: Activity
# SNB-19 = assay: Growth inhibition of human SNB19 cells assessed as cell growth at 10^-7 M after 48 hrs by sulforhodamine B assay; details: SNB-19, 48 h, read-out: Activity
# NCI-H23 = assay: Growth inhibition of human NCI-H23 cells assessed as cell growth at 10^-7 M after 48 hrs by sulforhodamine B assay; details: NCI-H23, 48 h, read-out: Activity
# TK-10 = assay: Growth inhibition of human TK10 cells assessed as cell growth at 10^-5 M after 48 hrs by sulforhodamine B assay; details: TK-10, 48 h, read-out: Activity
smiles,measurement,setting,value
O=C1/C(=C/c2ccc(Cl)cc2Cl)CN(S(=O)(=O)c2ccccc2)C/C1=C\c1ccc(Cl)cc1Cl,growth at 0.1 µM,[1],110%
same,growth at 0.1 µM,786-0 [2],104%
same,growth at 10 µM,[3],-9%
same,growth at 10 µM,[4],-12%
same,growth at 10 µM,SK-MEL-5 [5],47%
same,growth at 10 µM,MDA-MB-435 [6],-48%
same,growth at 10 µM,SNB-75,-6%
same,growth at 10 µM,[7],-3%
same,growth at 10 µM,SW-620 [8],-15.2%
same,growth at 10 µM,HT-29 [9],-27.5%
same,growth at 10 µM,HL-60(TB),-24%
same,growth at 10 µM,K562,0.79%
same,growth at 1 µM,DU-145 [10],18%
same,growth at 100 µM,A549,-33%
same,growth at 10 µM,[11],-72.8%
same,growth at 10 µM,MCF7,12%
same,growth at 10 µM,DU-145 [12],4%
same,growth at 10 µM,PC-3,-25%
same,growth at 10 µM,[13],-63%
same,growth at 10 µM,SN12C,-47%
same,growth at 10 µM,CAKI-1,-66.1%
same,growth at 10 µM,A498,-27%
same,growth at 10 µM,786-0 [14],-91%
same,GI50,HT-29 [15],0.295 µM
same,LC50,HT-29 [15],> 100 µM
same,growth at 0.01 µM,HT-29 [15],102%
same,TGI,HT-29 [15],0.851 µM
same,GI50,NCI-H226,1.05 µM
same,LC50,NCI-H226,7.94 µM
same,growth at 0.01 µM,NCI-H226,92%
same,TGI,NCI-H226,2.88 µM
same,GI50,[16],1.37 µM
same,TGI,[16],> 100 µM
same,CC50,[16],> 100 µM
same,GI50,MDA-MB-435 [17],0.985 µM
same,TGI,MDA-MB-435 [17],3.21 µM
same,CC50,MDA-MB-435 [17],> 100 µM
same,GI50,[18],0.345 µM
same,TGI,[18],6.67 µM
same,CC50,[18],> 100 µM
same,GI50,SW-620 [19],0.317 µM
same,TGI,SW-620 [19],2.79 µM
same,CC50,SW-620 [19],> 100 µM
same,GI50,COLO 205,0.424 µM
same,TGI,COLO 205,2.01 µM
same,CC50,COLO 205,> 100 µM
same,growth at 100 µM,[20],-60%
same,growth at 0.1 µM,SK-MEL-5 [21],98%
same,growth at 0.1 µM,Malme-3M,129%
same,growth at 0.1 µM,SNB-19,89%
same,growth at 0.1 µM,NCI-H23,104%
Cc1ccc(S(=O)(=O)N2C/C(=C\c3cc(F)cc(F)c3)C(=O)/C(=C/c3cc(F)cc(F)c3)C2)cc1,growth at 0.1 µM,[1],111%
same,growth at 0.1 µM,786-0 [2],104%
same,growth at 10 µM,[3],-44%
same,growth at 10 µM,[4],-65%
same,growth at 10 µM,SK-MEL-5 [5],-92%
same,growth at 10 µM,MDA-MB-435 [6],-76.6%
same,growth at 10 µM,SNB-75,-41.6%
same,growth at 10 µM,[7],-44%
same,growth at 10 µM,SW-620 [8],-79%
same,growth at 10 µM,HT-29 [9],-78%
same,growth at 10 µM,HL-60(TB),-14%
same,growth at 10 µM,K562,-19%
same,growth at 1 µM,DU-145 [10],62%
same,growth at 100 µM,A549,-34%
same,growth at 10 µM,[11],-89%
same,growth at 10 µM,MCF7,-75.4%
same,growth at 10 µM,DU-145 [12],-65%
same,growth at 10 µM,PC-3,-60.3%
same,growth at 10 µM,[13],-92%
same,growth at 10 µM,TK-10,-58%
same,growth at 10 µM,SN12C,-86%
same,growth at 10 µM,CAKI-1,-25%
same,growth at 10 µM,A498,-59%
same,growth at 10 µM,786-0 [14],-87%
same,GI50,HT-29 [15],0.229 µM
same,LC50,HT-29 [15],3.16 µM
same,growth at 0.01 µM,HT-29 [15],105%
same,TGI,HT-29 [15],0.631 µM
same,GI50,NCI-H226,8.71 µM
same,LC50,NCI-H226,> 100 µM
same,growth at 0.01 µM,NCI-H226,97%
same,TGI,NCI-H226,39.8 µM
same,GI50,[16],0.439 µM
same,TGI,[16],10.1 µM
same,CC50,[16],76.7 µM
same,GI50,MDA-MB-435 [17],0.241 µM
same,TGI,MDA-MB-435 [17],0.685 µM
same,CC50,MDA-MB-435 [17],3.63 µM
same,GI50,[18],0.466 µM
same,TGI,[18],2.5 µM
same,CC50,[18],15.7 µM
same,GI50,SW-620 [19],0.0721 µM
same,TGI,SW-620 [19],0.305 µM
same,CC50,SW-620 [19],1.45 µM
same,GI50,COLO 205,0.612 µM
same,TGI,COLO 205,2.11 µM
same,CC50,COLO 205,6.14 µM
same,growth at 100 µM,[20],-95%
same,growth at 0.1 µM,SK-MEL-5 [21],89%
same,growth at 0.1 µM,Malme-3M,101%
same,growth at 0.1 µM,SNB-19,82%
same,growth at 0.1 µM,NCI-H23,100%
